In assay [1] the target is human A2a adenosine receptor (Homo sapiens (Human), UniProt P29274). The experiment in a line: A2a binding affinity using radioligand binding, Method (A). The following applies: Method (A): [3H]SCH58261 filtration binding. The procedure, abridged: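 Membranes from HEK293 or CHO cells expressing human A2a were preincubated with compound for 15–30 min at room temperature. [3H]SCH58261 was then added (4 nM working dilution) in 50 mM Tris pH 7.4, 10 mM MgCl2, 0.005% Tween20 for 60 min at room temperature. Bound radioactivity after filtration was normalised to total and non-specific binding, and IC50 came from 4-parameter logistic fits.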
Chain of human A2a adenosine receptor (P29274 whole entry): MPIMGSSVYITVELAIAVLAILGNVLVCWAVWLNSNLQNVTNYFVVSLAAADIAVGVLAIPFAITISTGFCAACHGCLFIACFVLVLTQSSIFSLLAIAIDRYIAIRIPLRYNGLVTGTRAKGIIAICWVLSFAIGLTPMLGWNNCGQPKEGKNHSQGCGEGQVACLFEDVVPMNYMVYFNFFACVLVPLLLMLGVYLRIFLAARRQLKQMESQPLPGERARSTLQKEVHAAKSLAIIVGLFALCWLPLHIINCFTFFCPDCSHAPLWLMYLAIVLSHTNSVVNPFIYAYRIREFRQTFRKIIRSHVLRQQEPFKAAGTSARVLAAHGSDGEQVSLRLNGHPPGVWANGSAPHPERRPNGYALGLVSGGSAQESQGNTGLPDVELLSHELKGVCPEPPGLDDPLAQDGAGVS

In assay [2] the target is human A2b adenosine receptor (Homo sapiens (Human), UniProt P29275). The experiment in a line: A2b binding affinity, radioligand filtration binding assay. The following applies: tritiated proprietary A2b antagonist, HEK293 membranes. The protocol:
Measurement of A2b Binding Affinity
The reported affinity of the compounds of the invention for the human A2b adenosine receptor was determined experimentally using a radioligand filtration binding assay. This assay measures the amount of binding of a tritiated proprietary A2b receptor antagonist, in the presence and absence of a compound of the invention, to membranes made from HEK293 cells recombinantly expressing the human A2b adenosine receptor (Perkin Elmer, Cat. No. ES-013-C).
The filter plate was incubated for at least 1 h at 55° C. and allowed to dry. The bottom of the filter plate was then sealed with backing tape. […] The plates were then incubated for at least 20 min, and then the amount of radioactivity remaining in each well was determined using a TopCount® (Perkin Elmer) scintillation counter. After normalization to total and non-specific binding, the percent effect at each compound concentration was calculated. The plot of percent effect versus the log of compound concentration was analyzed electronically using a 4-parameter logistic fit based on the Levenberg-Marquardt algorithm to generate IC50 values.

Consider 24 molecules from patent US12414952B2 (Merck Sharp & Dohme LLC, priority 2018, dated 2025).

Chain of human A2b adenosine receptor (P29275 whole entry): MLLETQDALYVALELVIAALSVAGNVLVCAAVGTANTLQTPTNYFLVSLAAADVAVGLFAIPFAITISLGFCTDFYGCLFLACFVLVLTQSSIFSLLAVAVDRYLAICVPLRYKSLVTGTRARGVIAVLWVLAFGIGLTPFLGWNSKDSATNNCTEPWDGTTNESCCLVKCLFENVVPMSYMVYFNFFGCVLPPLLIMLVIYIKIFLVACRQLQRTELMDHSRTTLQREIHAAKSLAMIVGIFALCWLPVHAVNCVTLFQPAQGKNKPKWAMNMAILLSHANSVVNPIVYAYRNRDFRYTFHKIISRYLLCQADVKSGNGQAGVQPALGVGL

What is called IC50 is the concentration that gives 50% inhibition. A higher IC50 goes with lower potency. In the case of `Cc1c(-c2cccc(F)c2)nc(N)n2nc(CNCc3ccc(C(F)(F)F)cc3)nc12` [Example 10.5, 7-(3-fluorophenyl)-8-methyl-2-(((4-(trifluoromethyl)benzyl)amino)methyl)-[1,2,4]triazolo[1,5-c]pyrimidin-5-amine], the IC50 in assay [1] came to 163 nM; in assay [2], 157 nM.
Consider `Cc1c(-c2ncco2)nc(N)n2nc(CNCc3ccc(C(C)(C)O)cc3)nc12` [Example 11.2, 2-(4-((((5-amino-8-methyl-7-(oxazol-2-yl)-[1,2,4]triazolo[1,5-c]pyrimidin-2-yl)methyl)amino)methyl)phenyl)propan-2-ol], for which the IC50 was found to be 1.1 nM in assay [1] and 62.6 nM in assay [2].
Taken in the same sequence, the figures for `Cc1c(-c2ncco2)nc(N)n2nc(CNCc3ccc(C(C)(C)O)cn3)nc12` [Example 11.3, 2-(6-((((5-amino-8-methyl-7-(oxazol-2-yl)-[1,2,4]triazolo[1,5-c]pyrimidin-2-yl)methyl)amino)methyl)pyridin-3-yl)propan-2-ol] were 15.5 nM and 40.6 nM.
Turning to `Cc1c(-c2ncco2)nc(N)n2nc(CNCc3ccc(C(C)(C)O)nc3)nc12` [Example 11.4, 2-(5-((((5-amino-8-methyl-7-(oxazol-2-yl)-[1,2,4]triazolo[1,5-c]pyrimidin-2-yl)methyl)amino)methyl)pyridin-2-yl)propan-2-ol], the IC50 in assay [1] worked out at 5.4 nM; in assay [2], 744 nM.
With `Cc1c(-c2ncco2)nc(N)n2nc(CNCc3cnn(CC(C)(C)O)c3)nc12` [Example 11.5, 1-(4-((((5-amino-8-methyl-7-(oxazol-2-yl)-[1,2,4]triazolo[1,5-c]pyrimidin-2-yl)methyl)amino)methyl)-1H-pyrazol-1-yl)-2-methylpropan-2-ol], the concentration for half-maximal inhibition (IC50) in assay [1] worked out at 15.2 nM; in assay [2] it was 1320 nM.
The like results for `Cc1c(-c2ncco2)nc(N)n2nc(CN(Cc3ccc(C(F)(F)F)cc3)CC(F)F)nc12` [Example 12.3] were, in that order, 0.7 nM and 1990 nM.
The like results for `Cc1c(-c2ncco2)nc(N)n2nc(CN(Cc3ccc(C(C)(C)O)cc3)CC(F)F)nc12` [Example 13.1, 2-(4-((((5-amino-8-methyl-7-(oxazol-2-yl)-[1,2,4]triazolo[1,5-c]pyrimidin-2-yl)methyl)(2,2-difluoroethyl)amino)methyl)phenyl)propan-2-ol] were, in that order, 0.4 nM and 489 nM.
The like results for `Cc1c(-c2ncco2)nc(N)n2nc(CCS(=O)(=O)C3CC3)nc12` [Example 15.3, 2-(2-(cyclopropylsulfonyl)ethyl)-8-methyl-7-(oxazol-2-yl)-[1,2,4]triazolo[1,5-c]pyrimidin-5-amine] were, in that order, 7.3 nM and 151 nM.
As to `Cc1c(-c2cccc(F)c2)nc(N)n2nc(CCS(=O)(=O)C3CC3)nc12` [Example 16.2, 2-(2-(cyclopropylsulfonyl)ethyl)-7-(3-fluorophenyl)-8-methyl-[1,2,4]triazolo[1,5-c]pyrimidin-5-amine], the figures for the IC50 in assay [1] and in assay [2] were 19.3 nM and 453 nM, respectively.
For the molecule `Cc1c(-c2ncco2)nc(N)n2nc(CCN3CCn4c(cnc4C4CC(F)(F)C4)C3)nc12` [Example 17.2, 2-(2-(3-(3,3-difluorocyclobutyl)-5,6-dihydroimidazo[1,5-a]pyrazin-7(8H)-yl)ethyl)-8-methyl-7-(oxazol-2-yl)-[1,2,4]triazolo[1,5-c]pyrimidin-5-amine], the IC50 in assay [1] was found to be 0.4 nM; in assay [2], 20.3 nM.
As to `Cc1c(-c2ncco2)nc(N)n2nc(CCN3CCn4c(cnc4C4CCCC4)C3)nc12` [Example 17.3, 2-(2-(3-cyclopentyl-5,6-dihydroimidazo[1,5-a]pyrazin-7(8H)-yl)ethyl)-8-methyl-7-(oxazol-2-yl)-[1,2,4]triazolo[1,5-c]pyrimidin-5-amine], the IC50 turned out to be 4.2 nM in assay [1] and 17.7 nM in assay [2].
In the case of `Cc1c(-c2ncco2)nc(N)n2nc(CCN3Cc4cn(CC(C)(C)O)nc4C3)nc12` [Example 17.4, 1-(5-(2-(5-amino-8-methyl-7-(oxazol-2-yl)-[1,2,4]triazolo[1,5-c]pyrimidin-2-yl)ethyl)-5,6-dihydropyrrolo[3,4-c]pyrazol-2(4H)-yl)-2-methylpropan-2-ol], the figures for the 50% inhibitory concentration (IC50) in assay [1] and in assay [2] were 9.4 nM and 1430 nM, respectively.
Take `Cc1c(-c2ncco2)nc(N)n2nc(CCN3Cc4cnn(C)c4C3)nc12` [Example 17.5, 8-methyl-2-(2-(1-methyl-4,6-dihydropyrrolo[3,4-c]pyrazol-5(1H)-yl)ethyl)-7-(oxazol-2-yl)-[1,2,4]triazolo[1,5-c]pyrimidin-5-amine]: the IC50 in assay [1] worked out at 43.6 nM; in assay [2], 688 nM.
The like results for `Cc1cc2n(n1)CCN(CCc1nc3c(C)c(-c4ncco4)nc(N)n3n1)C2` [Example 17.6, 8-methyl-2-(2-(2-methyl-6,7-dihydropyrazolo[1,5-a]pyrazin-5(4H)-yl)ethyl)-7-(oxazol-2-yl)-[1,2,4]triazolo[1,5-c]pyrimidin-5-amine] were, in that order, 16.3 nM and 677 nM.
Taken in the same sequence, the figures for `Cc1c(-c2ncco2)nc(N)n2nc(CCN3CCn4c(cnc4C45CC(C4)C5)C3)nc12` [Example 17.7, 2-(2-(3-(bicyclo[1.1.1]pentan-1-yl)-5,6-dihydroimidazo[1,5-a]pyrazin-7(8H)-yl)ethyl)-8-methyl-7-(oxazol-2-yl)-[1,2,4]triazolo[1,5-c]pyrimidin-5-amine] were 0.6 nM and 17.8 nM.
On to `Cc1c(-c2ncco2)nc(N)n2nc(CCN3CCc4nn(C5CC(F)(F)C5)cc4C3)nc12` [Example 17.9, 2-(2-(2-(3,3-difluorocyclobutyl)-2,4,6,7-tetrahydro-5H-pyrazolo[4,3-c]pyridin-5-yl)ethyl)-8-methyl-7-(oxazol-2-yl)-[1,2,4]triazolo[1,5-c]pyrimidin-5-amine], for which the figures for the IC50 in assay [1] and in assay [2] were 4.1 nM and 97 nM, respectively.
`Cc1c(-c2ncco2)nc(N)n2nc(CCN3CCc4c(cnn4C4CC(F)(F)C4)C3)nc12` [Example 17.10, 2-(2-(1-(3,3-difluorocyclobutyl)-1,4,6,7-tetrahydro-5H-pyrazolo[4,3-c]pyridin-5-yl)ethyl)-8-methyl-7-(oxazol-2-yl)-[1,2,4]triazolo[1,5-c]pyrimidin-5-amine]: the IC50 in assay [1] was determined as 0.6 nM; in assay [2], 20.6 nM.
For `Cc1c(-c2ncco2)nc(N)n2nc(CCN3CCc4nn(C5CCCC5)cc4C3)nc12` [Example 17.11, 2-(2-(2-cyclopentyl-2,4,6,7-tetrahydro-5H-pyrazolo[4,3-c]pyridin-5-yl)ethyl)-8-methyl-7-(oxazol-2-yl)-[1,2,4]triazolo[1,5-c]pyrimidin-5-amine], the half-inhibitory concentration (IC50) in assay [1] was found to be 1.3 nM; in assay [2] it was 301 nM.
In the case of `Cc1c(-c2ncco2)nc(N)n2nc(CCN3CCc4c(cnn4C4CCCC4)C3)nc12` [Example 17.12, 2-(2-(1-cyclopentyl-1,4,6,7-tetrahydro-5H-pyrazolo[4,3-c]pyridin-5-yl)ethyl)-8-methyl-7-(oxazol-2-yl)-[1,2,4]triazolo[1,5-c]pyrimidin-5-amine], the IC50 in assay [1] is 1.2 nM; in assay [2], 45 nM.
Taken in the same sequence, the figures for `Cc1c(-c2ncco2)nc(N)n2nc(CCN3CCc4c(nnn4C4CCCC4)C3)nc12` [Example 17.13, 2-(2-(1-cyclopentyl-1,4,6,7-tetrahydro-5H-[1,2,3]triazolo[4,5-c]pyridin-5-yl)ethyl)-8-methyl-7-(oxazol-2-yl)-[1,2,4]triazolo[1,5-c]pyrimidin-5-amine] were 0.7 nM and 8.1 nM.
Turning to `Cc1c(-c2ncco2)nc(N)n2nc(CCN3CCc4c(nnn4C4CC(F)(F)C4)C3)nc12` [Example 17.14, 2-(2-(1-(3,3-difluorocyclobutyl)-1,4,6,7-tetrahydro-5H-[1,2,3]triazolo[4,5-c]pyridin-5-yl)ethyl)-8-methyl-7-(oxazol-2-yl)-[1,2,4]triazolo[1,5-c]pyrimidin-5-amine], the IC50 in assay [1] amounted to 0.5 nM; in assay [2] it was 41.7 nM.
As for `Cc1c(-c2ncco2)nc(N)n2nc(CCN3CCc4c(nnn4C45CC(C4)C5)C3)nc12` [Example 17.15, 2-(2-(1-(bicyclo[1.1.1]pentan-1-yl)-1,4,6,7-tetrahydro-5H-[1,2,3]triazolo[4,5-c]pyridin-5-yl)ethyl)-8-methyl-7-(oxazol-2-yl)-[1,2,4]triazolo[1,5-c]pyrimidin-5-amine], the half-maximal inhibitory concentration (IC50) in assay [1] is 2.2 nM; in assay [2] it was 32 nM.
Turning to `Cc1c(-c2ncco2)nc(N)n2nc(CCN3CCCC(F)(F)C3)nc12` [Example 17.16, 2-(2-(3,3-difluoropiperidin-1-yl)ethyl)-8-methyl-7-(oxazol-2-yl)-[1,2,4]triazolo[1,5-c]pyrimidin-5-amine], the results for the concentration for half-maximal inhibition (IC50) in assay [1] and in assay [2] were 1.2 nM and 1100 nM, respectively.
For the molecule `CCOC(=O)c1cnn(CCc2nc3c(C)c(-c4ncco4)nc(N)n3n2)c1` [Example 17.17, ethyl 1-(2-(5-amino-8-methyl-7-(oxazol-2-yl)-[1,2,4]triazolo[1,5-c]pyrimidin-2-yl)ethyl)-1H-pyrazole-4-carboxylate], the 50% inhibitory concentration (IC50) amounted to 34.9 nM in assay [1] and 9670 nM in assay [2].
